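Test compounds were applied to cells in 96-well plates for 48 hours at 5 doses. GI50: concentration for 50% inhibition of growth. The concentration for full growth arrest is given as TGI.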
What was measured:
Test in all cases: growth of human tumour cells (NCI), 48 h
[1] = tested on: RXF 393 renal
[2] = tested on: MALME-3M melanoma
[3] = tested on: HCT-116 colon
[4] = tested on: MOLT-4 leukemia
[5] = tested on: OVCAR-3 ovarian
[6] = tested on: SNB-19 CNS
[7] = tested on: TK-10 renal
[8] = tested on: HOP-62 NSCLC
[9] = tested on: IGROV1 ovarian
[10] = tested on: OVCAR-4 ovarian
[11] = tested on: 786-0 renal
[12] = tested on: NCI-H522 lung
[13] = tested on: U251 CNS
[14] = tested on: UACC-62 melanoma
[15] = tested on: SN12C renal
[16] = tested on: HCT-15 colon
[17] = tested on: SK-MEL-2 melanoma
[18] = tested on: NCI-H226 lung
[19] = tested on: HS 578T breast
[20] = tested on: OVCAR-5 ovarian
[21] = tested on: OVCAR-8 ovarian
[22] = tested on: SK-OV-3 ovarian
[23] = tested on: MDA-MB-435
[24] = tested on: K-562 leukemia
[25] = tested on: SF-295 CNS
[26] = tested on: LOX IMVI melanoma
[27] = tested on: SW-620 colon
[28] = tested on: SR leukemia
[29] = tested on: MCF7 breast
[30] = tested on: CCRF-CEM leukemia
[31] = tested on: A549 NSCLC
[32] = tested on: A498 renal
[33] = tested on: COLO 205 colon
[34] = tested on: SNB-75 CNS
[35] = tested on: HCC-2998 colon
[36] = tested on: DU-145 prostate
[37] = tested on: HT29 colon
[38] = tested on: UO-31 renal
[39] = tested on: RPMI-8226 leukemia
[40] = tested on: M14 melanoma
[41] = tested on: HOP-92 NSCLC
[42] = tested on: ACHN renal
[43] = tested on: T-47D breast
[44] = tested on: CAKI-1 renal
[45] = tested on: PC-3 prostate
[46] = tested on: UACC-257 melanoma
[47] = tested on: KM12 colon
[48] = tested on: SK-MEL-28 melanoma
[49] = tested on: SF-268 CNS
[50] = tested on: EKVX NSCLC
[51] = tested on: MDA-MB-468 breast
[52] = tested on: HL-60(TB) leukemia
[53] = tested on: SF-539 CNS
[54] = tested on: BT-549 breast
[55] = tested on: NCI-H460 lung
[56] = tested on: SK-MEL-5 melanoma
[57] = tested on: MDA-MB-231 breast
[58] = tested on: NCI-H23 lung

Q: `CC(C)N=C([Se])NC(=O)c1cccs1` was tested. Which GI50 [1] did it give?
A: 12.2 µM

Q: What about the TGI [1] of the same compound?
A: 24.8 µM

Q: What about the GI50 [2] of the same compound?
A: 17 µM

Q: And the TGI [2]?
A: 33.2 µM

Q: What about the GI50 [3] of the same compound?
A: 4.78 µM

Q: What about the TGI [3] of the same compound?
A: 18.4 µM

Q: And the GI50 [4]?
A: 20.8 µM

Q: And the TGI [4]?
A: 58.1 µM

Q: And the GI50 [5]?
A: 14.9 µM

Q: And the TGI [5]?
A: 28.6 µM

Q: And the GI50 [6]?
A: 4.82 µM

Q: What about the TGI [6] of the same compound?
A: 20 µM

Q: And the GI50 [7]?
A: 16 µM

Q: What about the TGI [7] of the same compound?
A: 29.5 µM

Q: And the GI50 [8]?
A: 4.11 µM

Q: And the TGI [8]?
A: 19.1 µM

Q: What about the GI50 [9] of the same compound?
A: 8.04 µM

Q: What about the TGI [9] of the same compound?
A: 21.1 µM

Q: And the GI50 [10]?
A: 16.8 µM

Q: What about the TGI [10] of the same compound?
A: 36 µM

Q: What about the GI50 [11] of the same compound?
A: 17.7 µM

Q: What about the TGI [11] of the same compound?
A: 31.9 µM

Q: What about the GI50 [12] of the same compound?
A: 14.4 µM

Q: And the TGI [12]?
A: 28.1 µM

Q: And the GI50 [13]?
A: 7.84 µM

Q: What about the TGI [13] of the same compound?
A: 21.5 µM

Q: And the GI50 [14]?
A: 14.1 µM

Q: And the TGI [14]?
A: 28.7 µM

Q: What about the GI50 [15] of the same compound?
A: 10.9 µM

Q: And the TGI [15]?
A: 23.9 µM

Q: What about the GI50 [16] of the same compound?
A: 18.4 µM

Q: And the TGI [16]?
A: 37.5 µM

Q: And the GI50 [17]?
A: 15.7 µM

Q: What about the TGI [17] of the same compound?
A: 34.5 µM

Q: What about the GI50 [18] of the same compound?
A: 16.3 µM

Q: And the TGI [18]?
A: 35.3 µM

Q: What about the GI50 [19] of the same compound?
A: 7.16 µM

Q: And the TGI [19]?
A: 32 µM

Q: What about the GI50 [20] of the same compound?
A: 16 µM

Q: What about the TGI [20] of the same compound?
A: 31.4 µM

Q: And the GI50 [21]?
A: 15.6 µM

Q: And the TGI [21]?
A: 29.5 µM

Q: What about the GI50 [22] of the same compound?
A: 16.2 µM

Q: What about the TGI [22] of the same compound?
A: 30.5 µM

Q: What about the GI50 [23] of the same compound?
A: 16.3 µM

Q: And the TGI [23]?
A: 33 µM

Q: What about the GI50 [24] of the same compound?
A: 28.4 µM

Q: What about the TGI [24] of the same compound?
A: 87.1 µM

Q: What about the GI50 [25] of the same compound?
A: 2.18 µM

Q: What about the TGI [25] of the same compound?
A: 6.77 µM

Q: What about the GI50 [26] of the same compound?
A: 13.2 µM

Q: And the TGI [26]?
A: 27.2 µM

Q: And the GI50 [27]?
A: 16.7 µM

Q: What about the TGI [27] of the same compound?
A: 33 µM

Q: And the GI50 [28]?
A: 12.6 µM

Q: And the TGI [28]?
A: 49.9 µM

Q: And the GI50 [29]?
A: 6.58 µM

Q: What about the TGI [29] of the same compound?
A: 35.2 µM

Q: What about the GI50 [30] of the same compound?
A: 17.4 µM

Q: What about the TGI [30] of the same compound?
A: 50.6 µM

Q: What about the GI50 [31] of the same compound?
A: 4.3 µM

Q: And the TGI [31]?
A: 33.1 µM

Q: And the GI50 [32]?
A: 6.55 µM

Q: And the TGI [32]?
A: 59.2 µM

Q: And the GI50 [33]?
A: 16.8 µM

Q: What about the TGI [33] of the same compound?
A: 31.7 µM

Q: What about the GI50 [34] of the same compound?
A: 5.51 µM

Q: What about the TGI [34] of the same compound?
A: 21.3 µM

Q: What about the GI50 [35] of the same compound?
A: 5.8 µM

Q: And the TGI [35]?
A: 18.4 µM

Q: And the GI50 [36]?
A: 19.3 µM

Q: And the TGI [36]?
A: 40 µM

Q: What about the GI50 [37] of the same compound?
A: 18.4 µM

Q: What about the TGI [37] of the same compound?
A: 46.6 µM

Q: And the GI50 [38]?
A: 13.8 µM

Q: What about the TGI [38] of the same compound?
A: 26.7 µM

Q: And the GI50 [39]?
A: 19.9 µM

Q: What about the TGI [39] of the same compound?
A: 56.4 µM

Q: And the GI50 [40]?
A: 12.7 µM

Q: And the TGI [40]?
A: 26.6 µM

Q: What about the GI50 [41] of the same compound?
A: 22.1 µM

Q: What about the TGI [41] of the same compound?
A: 51.6 µM

Q: What about the GI50 [42] of the same compound?
A: 18 µM

Q: And the TGI [42]?
A: 37.4 µM

Q: What about the GI50 [43] of the same compound?
A: 19.4 µM

Q: What about the TGI [43] of the same compound?
A: 48.8 µM

Q: And the GI50 [44]?
A: 17 µM

Q: What about the TGI [44] of the same compound?
A: 32.6 µM

Q: And the GI50 [45]?
A: 4.06 µM

Q: What about the TGI [45] of the same compound?
A: 16.6 µM

Q: What about the GI50 [46] of the same compound?
A: 15.5 µM

Q: And the TGI [46]?
A: 29.8 µM

Q: And the GI50 [47]?
A: 12.1 µM

Q: And the TGI [47]?
A: 26.2 µM

Q: What about the GI50 [48] of the same compound?
A: 16.9 µM

Q: What about the TGI [48] of the same compound?
A: 35.1 µM

Q: And the GI50 [49]?
A: 19.9 µM

Q: What about the TGI [49] of the same compound?
A: 57.1 µM

Q: And the GI50 [50]?
A: 7.45 µM

Q: And the TGI [50]?
A: 20.8 µM

Q: And the GI50 [51]?
A: 16.5 µM

Q: What about the TGI [51] of the same compound?
A: 34.6 µM

Q: What about the GI50 [52] of the same compound?
A: 20.3 µM

Q: What about the TGI [52] of the same compound?
A: 55.6 µM

Q: What about the GI50 [53] of the same compound?
A: 13.2 µM

Q: And the TGI [53]?
A: 26.1 µM

Q: And the GI50 [54]?
A: 15.4 µM

Q: What about the TGI [54] of the same compound?
A: 31 µM

Q: And the GI50 [55]?
A: 3.37 µM

Q: What about the TGI [55] of the same compound?
A: 19 µM

Q: And the GI50 [56]?
A: 2.82 µM

Q: And the TGI [56]?
A: 14.3 µM

Q: And the GI50 [57]?
A: 17.6 µM

Q: What about the TGI [57] of the same compound?
A: 36.1 µM

Q: What about the GI50 [58] of the same compound?
A: 10.2 µM

Q: And the TGI [58]?
A: 23.8 µM
